Assay results published in paper PMC7037732, “Synthesis of Combretastatin A-4 and 3′-Aminocombretastatin A-4 derivatives with Aminoacid Containing Pendants and Study of their Interaction with Tubulin and as Downregulators of the VEGF, hTERT and c-Myc Gene Expression” (Molecules, 2020).

Experiments:
c-Myc gene = c-Myc gene expression by RT-qPCR in HT-29 cells; assay type: cell-based, human
Protocol: (§1) The effect on the expression of VEGF, hTERT and c-Myc genes has been studied for CA-4 and its derivatives that show selectivity indexes higher than 0.9 on the HT-29 cell line. The studied derivatives, together with the concentrations to which they have been tested, are CA-4 (15 μM); 4.1 (Gly, 5 μM); 4.5 (L-Pro, 25 μM); 4.9 (L-Met, 25 μM); 6.2 (D-Leu, 25 μM); 6.3 (D-Phe, 25 μM); 6.4 (D-Pro, 25 μM) and 6.5 (D-Ser, 10 μM). The expression of the genes was determined by RT-qPCR methodology, as described in the Materials and Methods section.
(§2) As regards AmCA-4 derivatives, the effect on the expression of the VEGF, hTERT and c-Myc genes has been studied on those that show IC50 in the low nanomolar range on the HT-29 cell line and/or on compounds whose selectivity indexes with respect to this cell line are higher than 1. The studied compounds, together with the concentrations to which they have been tested, are: CA-4 (15 μM), AmCA-4 (15 nM), 7.1 (7 nM), 7.2 (1.5 nM), 7.3 (4 nM), 7.4 (15 nM), 7.5 (2 nM), 7.7 (7 nM), 7.8 (15 nM), 7.9 (30 nM), 8.1 (7 nM), 8.2 (3 nM), 8.3 (10 nM), 8.4 (1.5 nM), 8.5 (4 nM), 8.7 (7 nM), 8.8 (3 nM) and 8.9 (4 nM).
(§3) HT-29 cells at 70–80% confluence were collected, and 1.5 × 10^5 cells were placed in a six-well plate in 1.5 mL of the medium. After 24 h, cells were incubated with the corresponding compounds for 48 h. Cells were collected, and the total cellular RNA from the HT-29 cells was isolated using an Ambion RNA Extraction Kit, according to the manufacturer’s instructions. The cDNA was synthesized by MMLV-RT with […] of extracted RNA and oligo(dT)15, according to the manufacturer’s instructions. Genes were amplified by a thermal cycler and StepOnePlus™ TaqMan® probes. TaqMan® Gene Expression Master Mix Fast, containing the appropriate buffer for the amplification conditions, dNTPs, thermostable DNA polymerase enzyme and a passive reference probe, was used. To amplify each of the genes, the predesigned primers sold by Life Technologies TaqMan® Gene Expression Assays Hs99999903-m1 (β-actin), Hs00900055-m1 (VEGF), Hs00972646-m1 (hTERT) and Hs00153408-m1 (c-Myc) were used.

[1] = tested on: HT-29 (human colon adenocarcinoma); experiment: Inhibition of cell proliferation (MTT), HT-29; assay type: cell-based; conditions: 48 h of treatment (footnote), average ±SD of three experiments
purified tubulin = experiment: Critical concentration (CrC) for the assembly of purified tubulin in GAB; assay type: biochemical; conditions: compound 27.5 μM, tubulin 25 μM, glycerol (GAB) and GTP assembly buffer; control 7.9 ± 1.2
Protocol: The effect on the self-assembly of tubulin was determined by measuring the critical concentration (CrC).

hTERT gene = hTERT gene expression by RT-qPCR in HT-29 cells; assay type: cell-based, human
Protocol: as §1, §2, §3

[2] = tested on: HEK-293 (human embryonic kidney cells); experiment: Inhibition of cell proliferation (MTT), nontumor HEK-293; assay type: cell-based; conditions: 48 h of treatment (footnote), average ±SD of three experiments
VEGF gene = VEGF gene expression by RT-qPCR in HT-29 cells; assay type: cell-based, human
Protocol: as §1, §2, §3

[3] = Homo sapiens, HT-29, 48 h, 25 μM, control 100
[4] = Homo sapiens, HT-29, 48 h, Table 1
[5] = Homo sapiens, HEK293, 48 h, Table 1
[6] = Homo sapiens, HT-29, 48 h, 5 μM, control 100
[7] = HT-29, 48 h; discussion; concentration per compound
[8] = Homo sapiens, HT-29, 48 h, 2 nM, control 100
[9] = Homo sapiens, HT-29, 48 h, Table 2
[10] = Homo sapiens, HEK293, 48 h, Table 2
[11] = Homo sapiens; HT-29, 48 h, 25 μM; control 100
[12] = Homo sapiens, HT-29, 48 h, 10 μM, control 100
[13] = Homo sapiens, HT-29, 48 h, 4 nM, control 100
[14] = Homo sapiens, HT-29, 48 h, 7 nM, control 100

## COc1ccc(/C=C\c2cc(OC)c(OC)c(OC)c2)cc1OCC(=O)N1CCC[C@@H]1C(=O)O [Compound 6.4]
c-Myc gene; [3]
  mrna remaining at 25 µM: 81%
[1]; [4]
  IC50: 50 ± 11 µM
Purified tubulin
  CrC (critical concentration): 10 ± 3 µM
hTERT gene; [3]
  mrna remaining at 25 µM: 51%
[2]; [5]
  IC50: 53 ± 9 µM
VEGF gene; [3]
  mrna remaining at 25 µM: 25%

## COc1ccc(/C=C\c2cc(OC)c(OC)c(OC)c2)cc1OCC(=O)NCC(=O)O [Compound 4.1]
c-Myc gene; [6]
  mrna remaining at 5 µM: 62%
[1]; [4]
  IC50: 5 ± 1 µM
Purified tubulin
  CrC (critical concentration): 9.3 ± 0.4 µM
hTERT gene; [6]
  mrna remaining at 5 µM: 56%
[2]; [5]
  IC50: 5 ± 1 µM
VEGF gene; [6]
  mrna remaining at 5 µM: 45%

## COc1ccc(/C=C\c2cc(OC)c(OC)c(OC)c2)cc1NC(=O)[C@H](Cc1ccccc1)NC(=O)OCC1c2ccccc2-c2ccccc21 [Compound 7.5]
c-Myc gene; [7]
  downregulation of c-Myc gene expression: more than 60%
c-Myc gene; [8]
  mrna remaining at 0.002 µM: 40%
[1]; [9]
  IC50: 0.008 ± 0.003 µM
Purified tubulin
  CrC (critical concentration): 8.1 ± 1.6 µM
hTERT gene; [8]
  mrna remaining at 0.002 µM: < 70%
[2]; [10]
  IC50: 0.0023 ± 0.002 µM
VEGF gene; [7]
  downregulation of VEGF gene expression: more than 60%
VEGF gene; [8]
  mrna remaining at 0.002 µM: 16%

## COc1ccc(/C=C\c2cc(OC)c(OC)c(OC)c2)cc1OCC(=O)N[C@H](C(=O)O)C(C)C [Compound 4.2]
c-Myc gene; [11]
  mrna remaining at 25 µM: 71%
[1]; Homo sapiens, HT-29, Table 1
  IC50: 12 ± 5 µM
Purified tubulin
  CrC (critical concentration): 9.3 ± 0.3 µM
hTERT gene; [11]
  mrna remaining at 25 µM: 82%
[2]; Homo sapiens, HEK293, Table 1
  IC50: 4 ± 1 µM
VEGF gene; [11]
  mrna remaining at 25 µM: 89%

## COc1ccc(/C=C\c2cc(OC)c(OC)c(OC)c2)cc1OCC(=O)N[C@H](CC(C)C)C(=O)O [Compound 6.2]
c-Myc gene; [3]
  mrna remaining at 25 µM: 68%
[1]; [4]
  IC50: 47 ± 9 µM
Purified tubulin
  CrC (critical concentration): 11 ± 3 µM
hTERT gene; [3]
  mrna remaining at 25 µM: 87%
[2]; [5]
  IC50: 49 ± 12 µM
VEGF gene; [3]
  mrna remaining at 25 µM: 40%

## COc1ccc(/C=C\c2cc(OC)c(OC)c(OC)c2)cc1OCC(=O)N[C@H](CO)C(=O)O [Compound 6.5]
c-Myc gene; [12]
  mrna remaining at 10 µM: 94%
[1]; [4]
  IC50: 13 ± 1 µM
Purified tubulin
  CrC (critical concentration): 9.25 ± 0.16 µM
hTERT gene; [12]
  mrna remaining at 10 µM: 77%
[2]; [5]
  IC50: 14 ± 4 µM
VEGF gene; [12]
  mrna remaining at 10 µM: 54%

## COc1ccc(/C=C\c2cc(OC)c(OC)c(OC)c2)cc1OCC(=O)N[C@H](Cc1ccccc1)C(=O)O [Compound 6.3]
c-Myc gene; [11]
  mrna remaining at 25 µM: 55%
[1]; Homo sapiens, HT-29, Table 1
  IC50: 27 ± 5 µM
Purified tubulin
  CrC (critical concentration): 9.2 ± 0.4 µM
hTERT gene; [11]
  mrna remaining at 25 µM: 68%
[2]; Homo sapiens, HEK293, Table 1
  IC50: 46 ± 6 µM
VEGF gene; [11]
  mrna remaining at 25 µM: 77%

## COc1ccc(/C=C\c2cc(OC)c(OC)c(OC)c2)cc1NC(=O)[C@@H](N)Cc1ccccc1 [Compound 8.5]
c-Myc gene; [13]
  mrna remaining at 0.004 µM: 74%
[1]; [9]
  IC50: < 0.005 µM
[1]; Table 2
  IC50: 0.0044 ± 0.0025 µM
Purified tubulin
  CrC (critical concentration): 9.1 ± 0.9 µM
hTERT gene; [13]
  mrna remaining at 0.004 µM: 98%
[2]; [10]
  IC50: < 0.005 µM
[2]; Table 2
  IC50: 0.0035 ± 0.0019 µM
VEGF gene; [13]
  mrna remaining at 0.004 µM: 37%

## COc1ccc(/C=C\c2cc(OC)c(OC)c(OC)c2)cc1NC(=O)[C@@H](N)C(C)O (stereo partly drawn) [Compound 8.7]
c-Myc gene; [7]
  downregulation of c-Myc gene expression: more than 60%
c-Myc gene; [14]
  mrna remaining at 0.007 µM: 37%
[1]; [9]
  IC50: 0.008 ± 0.002 µM
Purified tubulin
  CrC (critical concentration): 12.3 ± 0.6 µM
hTERT gene; [14]
  mrna remaining at 0.007 µM: 81%
[2]; [10]
  IC50: 0.014 ± 0.003 µM
VEGF gene; [7]
  downregulation of VEGF gene expression: more than 60%
VEGF gene; [14]
  mrna remaining at 0.007 µM: 15%
